Test results reported in patent US12440496B2, “Natriuretic peptide receptor a agonists useful for the treatment of cardiometabolic diseases, kidney disease and diabetes” (Merck Sharp & Dohme LLC, priority 2019, dated 2025).

Target: T1, hNPRA (Homo sapiens, UniProt P16066)
T1 construct: expressed in transfected cells
T1 sequence (P16066 33-1061): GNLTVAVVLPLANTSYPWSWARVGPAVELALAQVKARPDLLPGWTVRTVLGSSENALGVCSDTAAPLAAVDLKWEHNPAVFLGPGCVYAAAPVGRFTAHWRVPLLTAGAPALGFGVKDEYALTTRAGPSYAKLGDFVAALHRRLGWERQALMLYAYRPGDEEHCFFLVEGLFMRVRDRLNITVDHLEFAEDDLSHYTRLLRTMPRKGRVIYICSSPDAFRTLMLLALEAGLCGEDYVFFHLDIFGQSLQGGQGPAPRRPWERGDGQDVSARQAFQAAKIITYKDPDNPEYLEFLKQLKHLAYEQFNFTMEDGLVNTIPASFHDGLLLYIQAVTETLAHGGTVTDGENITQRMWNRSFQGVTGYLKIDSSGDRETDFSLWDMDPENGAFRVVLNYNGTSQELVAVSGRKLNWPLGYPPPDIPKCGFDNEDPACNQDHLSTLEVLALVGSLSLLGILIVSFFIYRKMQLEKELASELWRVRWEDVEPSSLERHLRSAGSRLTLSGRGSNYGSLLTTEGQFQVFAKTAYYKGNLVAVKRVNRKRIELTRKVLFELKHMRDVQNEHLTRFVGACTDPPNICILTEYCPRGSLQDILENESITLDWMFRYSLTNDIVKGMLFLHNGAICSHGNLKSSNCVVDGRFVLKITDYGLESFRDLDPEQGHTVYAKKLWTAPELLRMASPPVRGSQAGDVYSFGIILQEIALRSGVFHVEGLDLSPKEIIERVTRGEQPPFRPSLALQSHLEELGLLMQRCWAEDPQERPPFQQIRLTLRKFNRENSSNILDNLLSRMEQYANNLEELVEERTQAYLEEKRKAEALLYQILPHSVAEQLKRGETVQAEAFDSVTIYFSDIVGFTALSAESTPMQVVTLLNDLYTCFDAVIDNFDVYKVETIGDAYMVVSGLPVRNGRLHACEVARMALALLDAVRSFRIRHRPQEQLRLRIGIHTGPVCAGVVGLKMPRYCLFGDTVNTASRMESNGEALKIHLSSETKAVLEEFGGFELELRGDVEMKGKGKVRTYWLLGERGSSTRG
Test: NPRA Functional Cell Assay (cGMP HTRF, NPRA HEK JumpIn stable cells)
Format: cell-based
Settings: cGMP production, 1 hour at 37° C., 10-point dose response
Summary of the method: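 cGMP HTRF read-out after 1 hour compound treatment at 37° C. of human NPRA-expressing HEK JumpIn cells, 1500 cells/well, in buffer with phosphodiesterase inhibitors IBMX and RO20 (100 uM each). Signal converted to [cGMP] by calibration curve; EC50s fitted by 4-parameter logistic; 50 nM h-ANP as positive response.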

SMILES | EC50 [nM]
CC(C)(C)[C@H]1CCc2nc3sc(C(=O)N[C@H](CCN4CCOCC4)c4ccc(C(=O)N[C@H]5CNC[C@@H]5O)cc4)cc3cc2C1 (racemic) [Example 72] | 987
CN(C)CC[C@@H](NC(=O)c1nc2cc3c(nc2s1)CC[C@H](C(C)(C)C)C3)c1cccc(C(=O)N[C@@H]2CNC[C@H]2O)c1 (racemic) [Example 90, rac-(7S)-7-tert-butyl-N-[rac-(1R)-3-(dimethylamino)-1-[3-[[rac-(3R,4R)-4-hydroxypyrrolidin-3-yl]carbamoyl]phenyl]propyl]-5,6,7,8-tetrahydrothiazolo[5,4-b] quinoline-2-carboxamide] | 271
CC(C)(C)[C@H]1CCc2nc3sc(C(=O)N[C@H](CCN[C@H]4CCCC(F)(F)[C@@H]4O)c4cccc(NS(C)(=O)=O)c4)cc3cc2C1 (racemic) [Example 24, ammonium; methylsulfony 1-[3-[rac-(1R)-1-[[rac-(6S)-6-tert-buty1-5,6,7,8-tetrahydrothieno[2,3-b]quinoline-2-carbonyl]amino]-3-[[rac-(1S,2R)-3,3-difluoro-2-hydroxy-cyclohexyl]amino]propyl]phenyl]azanide] | 1970
CN(C)CC[C@@H](NC(=O)c1cc2cc3c(nc2s1)CC[C@H](C(C)(C)C)C3)c1cccc(NS(C)(=O)=O)c1 (racemic) [Example 9, ammonium; methylsulfonyl-[3-[rac-(1R)-3-(dimethylamino)-1-[rac-(6S)-6-tert-butyl-5,6,7,8-tetrahydrothieno[2,3-b]quinoline-2-carbonyl]amino]propyl]phenyl] azanide] | 708
CC(C)(C)[C@H]1CCc2nc3sc(C(=O)N[C@H](CCN4CCC(O)CC4)c4ccc(-c5csc(C(=O)O)c5)nc4)nc3cc2C1 (racemic) [Example 197, 4-[5-[rac-(1R)-3-(4-hydroxypiperidin-1-ium-1-yl)-1-[[rac-(7S)-7-tert-butyl-5,6,7,8-tetrahydrothiazolo[5,4-b]quinoline-2-carbonyl]amino]propyl]-2-pyridyl]thiophene-2-carboxylic acid; 2,2,2-trifluoroacetate] | 560
CC(C)(C)[C@H]1CCc2nc3sc(C(=O)N[C@H](CCNC4CCOCC4)c4cccc(NS(C)(=O)=O)c4)cc3cc2C1 (racemic) [Example 10, ammonium; methylsulfonyl-[3-[rac-(1R)-1-[[rac-(6S)-6-tert-butyl-5,6,7,8-tetrahydrothieno[2,3-b]quinoline-2-carbonyl]amino]-3-(tetrahydro-pyran-4-ylamino)propyl]phenyl]azanide] | 710
O=C1CN(c2ccc([C@@H](CCN3CCC(O)CC3)NC(=O)c3nc4cc5c(nc4s3)CC[C@H](C3(C(F)(F)F)CC3)C5)cn2)C(=O)N1 [Example 221, (S)-N-((R)-1-(6-(2,4-dioxoimidazolidin-1-yl)pyridin-3-yl)-3-(4-hydroxypiperidin-1-yl)propyl)-7-(1-(trifluoromethyl)cyclopropyl)-5,6,7,8-tetrahydrothiazolo[5,4-b]quinoline-2-carboxamide] | 1140
CC(C)CN(C)CC[C@@H](NC(=O)c1nc2cc3c(nc2s1)CC[C@H](C(C)(C)C)C3)c1ccc(NS(=O)(=O)N(C)C)nc1 (racemic) [Example 212, isobutyl-methyl-[rac-(3R)-3-[6-(dimethylsulfamoylamino)-3-pyridyl]-3-[rac-(7S)-7-tert-butyl-5,6,7,8-tetrahydrothiazolo[5,4-b]quinoline-2-carbonyl]amino]propyl]ammonium; 2,2,2-trifluoroacetate] | 986
CC(C)(C)[C@H]1CCc2nc3sc(C(=O)N[C@H](CCN4CCC(F)CC4)c4cccc(NS(C)(=O)=O)c4)cc3cc2C1 (racemic) [Example 14, ammonium; methylsulfonyl-[3-[rac-(1R)-3-(4-fluoro-1-piperidyl)-1-[[rac-(6S)-6-tert-butyl-5,6,7,8-tetrahydrothieno[2,3-b]quinoline-2-carbonyl]amino]propyl]phenyl] azanide] | 834
CC(C)(C)[C@H]1CCc2nc3sc(C(=O)N[C@H](CCN4CCCC(O)C4)c4cccc(NS(C)(=O)=O)c4)cc3cc2C1 (mixture of isomers) [Example 12, ammonium; methylsulfonyl-[3-[rac-(1R)-3-(3-hydroxy-1-piperidyl)-1-[[rac-(6S)-6-tert-butyl-5,6,7,8-tetrahydrothieno[2,3-b]quinoline-2-carbonyl]amino]propyl]phenyl] azanide] | 790

Continued, values first:

EC50 [nM] | SMILES
129 | CC(C)(C)[C@H]1CCc2nc3sc(C(=O)N[C@H](CCN4CCC(O)CC4)c4ccc(-c5ccnnc5)nc4)nc3cc2C1 [Example 263, (S)-7-(tert-butyl)-N-((R)-3-(4-hydroxypiperidin-1-yl)-1-(6-(pyridazin-4-yl)pyridin-3-yl)propyl)-5,6,7,8-tetrahydrothiazolo[5,4-b]quinoline-2-carboxamide]
792 | CC(C)(C)[C@H]1CCc2nc3sc(C(=O)N[C@H](CCN4CCCC(O)C4)c4ccc(-c5ccc(=O)[nH]c5)cc4)cc3cc2C1 (mixture of isomers) [Example 55, rac-(6S)-6-tert-butyl-N-[rac-(1R)-3-(3-hydroxypiperidin-1-ium-1-yl)-1-[4-(6-oxo-1H-pyridin-3-yl)phenyl]propyl]-5,6,7,8-tetrahydrothieno[2,3-b]quinoline-2-carboxamide;formate]
305 | CC(C)(C)[C@H]1CCc2nc3sc(C(=O)N[C@H](CCN4CCC(O)CC4)c4ccc(-c5cc(F)c(O)cn5)cc4)nc3cc2C1 [Example 228, (S)-7-(tert-butyl)-N-((R)-1-(4-(4-fluoro-5-hydroxypyridin-2-yl)phenyl)-3-(4-hydroxypiperidin-1-yl)propyl)-5,6,7,8-tetrahydrothiazolo[5,4-b]quinoline-2-carboxamide]
681 | CC1(C)CN(CC[C@@H](NC(=O)c2nc3cc4c(nc3s2)CC[C@H](C(C)(C)C)C4)c2ccc(-c3ccc(=O)[nH]c3)cc2)C1 (racemic) [Example 77, rac-(7S)-7-tert-butyl-N-[rac-(1R)-3-(3,3-dimethylazetidin-1-yl)-1-[4-(6-oxo-1H-pyridin-3-yl)phenyl]propyl]-5,6,7,8-tetrahydrothiazolo[5,4-b]quinoline-2-carboxamide]
455 | CC(C)(C)[C@H]1CCc2nc3sc(C(=O)N[C@H](CCN4CCCCC4CO)c4ccc(-c5ccc(=O)[nH]c5)cc4)cc3cc2C1 (mixture of isomers) [Example 30, rac-(6S)-6-tert-butyl-N-[rac-(1R)-3-[2-(hydroxymethyl)piperidin-1-ium-1-yl]-1-[4-(6-oxo-1H-pyridin-3-yl)phenyl]propyl]-5,6,7,8-tetrahydrothieno[2,3-b]quinoline-2-carboxamide;formate]
292 | CN(C)CC[C@@H](NC(=O)c1nc2cc3c(nc2s1)CC[C@H](C(C)(C)C)C3)c1cccc(C(=O)N2CC3(CNC3)C2)c1 (racemic) [Example 91, rac-(7S)-7-tert-butyl-N-[rac-(1R)-1-[3-(2,6-diazaspiro[3.3]heptane-2-carbonyl)phenyl]-3-(dimethylamino)propyl]-5,6,7,8-tetrahydrothiazolo [5,4-b]quinoline-2-carboxamide]
269 | CC(C)(C)[C@H]1CCc2nc3sc(C(=O)N[C@H](CCN4CCC(O)CC4)c4ccc(-c5ccc(=O)[nH]c5)cc4)nc3cc2C1 (racemic) [Example 73, rac-(7S)-7-tert-butyl-N-[rac-(1R)-3-(4-hydroxy-1-piperidyl)-1-[4-(6-oxo-1H-pyridin-3-yl)phenyl]propyl]-5,6,7,8-tetrahydrothiazolo[5,4-b]quinoline-2-carboxamide]
